Measured values: publication PMC4654502, “Early Gelatinase Activity Is Not a Determinant of Long-Term Recovery after Traumatic Brain Injury in the Immature Mouse” (PLoS ONE, 2015)

Assays:
[1] = test system: controlled cortical impact TBI at p21; experiment: Stereological volumes and hippocampal cell counts at adulthood after TBI at p21; type: in vivo, male C57Bl/6J mice; conditions: ~2 months post-injury
Description: (§1) The controlled cortical impact model of TBI was used as previously described. TBI to the p21 mouse approximates a toddler-aged child, based upon the structural, biochemical and behavioral characteristics of this age. Pups were anaesthetized with 1.25% 2,2,2-tribromoethanol (Avertin; Sigma-Aldrich, St. Louis, MO) in isotonic saline (i.p. bolus at 0.02 mL/g body weight). After craniotomy, mice were subjected to a controlled cortical impact at 4.5 m/s velocity and 1.73 mm depth of penetration, for a sustained depression of 150 ms, using a 3.0 mm convex impactor tip. Mice were maintained on a water-circulating heating pad throughout surgery and recovery. Following impact, the scalp was closed with sutures and each animal administered 0.5 ml of isotonic saline subcutaneously (s.c.) to prevent post-operative dehydration. Sham-operated mice underwent identical surgical procedures, including craniotomy, without receiving the cortical impact. All mice were closely monitored for 1–2 hours post-surgery until return of the righting reflex and full mobilization. Mice were then returned to group-housing, and weighed post-surgery at days 1, 3, and weekly thereafter till the end of the study.
The treatment regime was based upon several considerations. […] Thirdly, we limited treatment to a period of 48 h post-injury in order to minimize potential off-target effects on ongoing brain development processes at this time, given the known roles that these gelatinases play in postnatal synaptic maturation. For acute studies (gelatin zymography and histology) animals were euthanized at 4 hours and for in situ zymography, they were euthanized 1 hour after the last injection. For long-term studies (behavioral and cognitive assessments and histology) animals were euthanized at ~2 months post-injury. Euthanasia was by overdose with 2.5% Avertin i.p. followed by decapitation or cardiac transperfusion as described below.
Upon completion of behavioral and cognitive assessments at ~ 2 months post-injury, anesthetized mice were perfused transcardially with ice-cold saline followed by 4% paraformaldehyde in 0.1M PBS. Collected brains were post-fixed overnight in 4% PFA and then transferred into a 30% sucrose solution for 72 h before being embedded in Neg50^TM (Richard-Allan Scientific, Thermo Fisher Scientific, Fremont, CA). Serial coronal sections spanning the entire cortex were cut at 20 μm or 40 μm (for time points of 48 h or 2 months post-injury, respectively).
An estimation of intact cortical and hippocampal volumes was performed on 40 μm coronal sections stained with cresyl violet, collected at ~ 2 months post-injury. The unbiased Cavalieri method was performed with StereoInvestigator software (MicroBrightField v10.21.1, Williston, VT, USA), using a Nikon E600W microscope configured with a motorized stage, MAC 5000 controller and Retiga 2000R color digital camera (QImaging, Surrey, BC, Canada). Spanning Bregma 1.5 to -3.8 mm, 12–16 sections containing cortex and 7–10 sections containing hippocampus were assessed per brain, using a sampling interval of 8 and a grid size of either 200 μm or 75 μm for cortex and hippocampus, respectively. Measurements were confined to the dorsal hemispheres as previously described using a 2x objective for the cortex and 4x for the hippocampus. The Gundersen mean coefficient of error (m = 1) was maintained ≤0.03 for cortical volume estimates and ≤0.08 for the hippocampus and dentate gyrus (DG). Group means are expressed as estimated volume (mm³). Certain sections were excluded from stereological analyses due to poor tissue integrity, folding or incomplete staining. In these cases, the section was deemed to be ‘missing’ and estimation for this section was calculated from the StereoInvestigator program based upon the adjacent sections. This was permitted for a maximum of 2 non-adjacent sections per brain. […]

MMP-9 = experiment: Inhibition constant for MMP-9; type: biochemical; conditions: more potent than the parent compound
MMP-9 or MMP-2 = conditions: compared with SB-3CT; cited from earlier work
[2] = Body weight after surgery at p21; type: in vivo, male C57Bl/6J mice; conditions: 25 mg/kg s.c. at 2, 4, 24, 48 h post-injury or sham-operation
Description: as §1

[3] = test system: controlled cortical impact TBI at p21; experiment: Open field test at adulthood after TBI at p21; type: in vivo, male C57Bl/6J mice; conditions: 25 mg/kg s.c. at 2, 4, 24, 48 h post-injury; tested ~2 months post-injury
Description: as §1
The treatment regime was based upon several considerations. […]
Exploratory behaviors were assessed over a 10 min session in an automated open field arena (40.6 cm x 40.6 cm; Kinder Scientific, Poway, CA). […]

[4] = test system: controlled cortical impact TBI at p21; experiment: Acute cell death (TUNEL, activated caspase-3) at 48 h after TBI at p21; type: in vivo, male C57Bl/6J mice; conditions: 48 h post-injury; 25 mg/kg s.c.
Description: as §1, with “Sham-operated mice underwent identical surgical procedures, including craniotomy, without receiving the cortical impact.” left out, “Mice were then returned to group-housing, and weighed post-surgery at days 1, 3, and weekly thereafter till the end of the study.” left out
Brain injured animals and sham controls were euthanized at 2 d post-injury. Dying cells were detected by double-labeling for terminal deoxynucleotidyl transferase-mediated dUTP nick 3’-end labeling (TUNEL) in combination with immunofluorescence for activated (cleaved) caspase-3, a hallmark of apoptosis. […] Immuno-positive cells with DAPI-positive nuclei were counted using Metamorph analysis software (Molecular Devices, Sunnyvale, CA).

MMP-2 = experiment: Inhibition constant for MMP-2; type: biochemical; conditions: more potent than the parent compound

## O=S(=O)(CC1CS1)c1ccc(Oc2ccc(O)cc2)cc1 (stereo not drawn) [p-OH SB-3CT]
[1]; TBI groups or sham groups compared
  contralateral cortical volume: did not alter contralateral cortical volumes
[1]; TBI, p = 0.0835
  ipsilateral hippocampal volume, TBI mice vs vehicle-treated: reduced hippocampal volumes, that did not reach statistical significance
[1]; sham and TBI mice
  contralateral dentate gyrus volume: did not affect contralateral DG volume
[1]; sham or TBI brains
  contralateral hippocampus volume: did not affect the contralateral hippocampus volume
[1]; sham or TBI groups
  ipsilateral dentate gyrus volume: no effect of drug treatment
[1]; sham or injured animals
  ipsilateral cortical volume: did not influence ipsilateral cortical volumes
[1]; sham, p = 0.0669
  ipsilateral hippocampal volume, sham mice vs vehicle-treated sham: tended to exhibit larger hippocampal volumes
MMP-9
  potency at inhibiting MMP-9 relative to parent compound SB-3CT: 2.5 fold
MMP-9 or MMP-2
  residence time (how long the drug is bound to the target MMPs): considerably longer than that of SB-3CT
[2]
  animal weight over development: no differences between treatment or injury groups
[3]
  injury-induced hyperactivity (total distance traveled, open field): did not ameliorate this hyperactivity
  percentage time spent in the center of the open field (anxiety-like behavior): neither TBI nor p-OH SB-3CT treatment affected this measure
[4]
  cell death by TUNEL staining compared to vehicle-treated controls: A similar degree of cell death
  cell death by activated caspase-3 compared to vehicle-treated controls: A similar degree of cell death
MMP-2
  potency at inhibiting MMP-2 relative to parent compound SB-3CT: 5 fold
